# Data published in patent US4146719A, “Piperazinyl derivatives of quinoline carboxylic acids” (priority 1977, dated 1979).
# Where two headings read alike, the source gives them in different places.
# What was measured:
# Pr. vulgaris XK Denken = test: Antibacterial activity in vitro, M.I.C., agar dilution streak method; format: cell-based, Proteus vulgaris
# [1] = tested on: Mycobacterium phlei IFO 3142; test: as above; format: cell-based
# [2] = tested on: Haemophilus influenzae IID 986; test: as above; format: cell-based
# Ps. aeruginosa IFO 12689 = test: as above; format: cell-based, Pseudomonas aeruginosa
# Shigella sonnei IID 969 = test: as above; format: cell-based; conditions: Gram -
# Ps. aeruginosa IID 1210 = test: as above; format: cell-based, Pseudomonas aeruginosa
# Str. faecalis IID 682 = test: as above; format: cell-based; conditions: Gram +
# [3] = tested on: Diplococcus pneumoniae IID 552; test: as above; format: cell-based
# [4] = tested on: Bacillus subtilis PCI 219; test: as above; format: cell-based
# Str. pyogenes S-8 = test: as above; format: cell-based, Streptococcus pyogenes
# [5] = tested on: Streptococcus pyogenes IID 692; test: as above; format: cell-based
# [6] = tested on: Salmonella enteritidis IID 604; test: as above; format: cell-based
# Escherichia coli NIHJ = test: as above; format: cell-based
# [7] = tested on: Pseudomonas aeruginosa V-1; test: as above; format: cell-based
# [8] = tested on: Staphylococcus aureus 209P; test: as above; format: cell-based
# [9] = tested on: Proteus vulgaris IFO 3167; test: as above; format: cell-based
# E. coli ATCC 10536 = test: as above; format: cell-based, Escherichia coli
# Sta. aureus ATCC 14775 = test: as above; format: cell-based, Staphylococcus aureus
# [10] = tested on: Corynebacterium pyogenes IID 548; test: as above; format: cell-based; conditions: Gram +
# My. smegmatis IFO 3083 = test: as above; format: cell-based
# [11] = tested on: Klebsiella pneumoniae IFO 3512; test: as above; format: cell-based
# Ps. aeruginosa IID 1130 = test: as above; format: cell-based, Pseudomonas aeruginosa
# [12] = tested on: Neisseria perflava IID 856; test: as above; format: cell-based
# Escherichia coli = test: Concentration ratio in serum to M.I.C. after oral administration of 50 mg/kg in rats; format: in vivo, Escherichia coli; rats; conditions: rat, 50 mg/kg oral
# [13] = Chem. Abstr., 62, 15600h (1965); cited from earlier work
# [14] = Chelate formation with ferric ion; format: physicochemical; conditions: one third molar equivalent of ferric chloride hexahydrate, water
# From the text: It is known that most of drugs such as Quinoform and Ethambutol which form chelates with metal ions in vivo produce undesirable side effects.
# [15] = Biliary excretion in rats after a single oral administration of 50 mg/kg; conditions: in vivo, rat, 50 mg/kg oral
# [16] = tested on: Escherichia coli NIHJ JC-2; test: Influence of rat bile on antibacterial activity; format: cell-based; conditions: bile of rats
# Method: Nutrient agar was heated and melted. […] The diameter of the inhibition zone was measured.
# [17] = tested on: gram-positive and gram-negative bacteria including Pseudomonas aeruginosa; test: Antibacterial spectrum in vitro (summary in words); format: cell-based
# [18] = tested on: Escherichia coli NIHJ JC-2; test: Preventive effect against ascending kidney infection in mice with Escherichia coli; format: in vivo, Escherichia coli; mice (ddY, female); conditions: Escherichia coli
# Method: Ascending kidney infection was induced in female mice (strain: ddY, 6 weeks old, body weight: 22-26g), by instilling Escherlichia coli NIHJ JC-2 suspended in 0.04 ml of Tryptosoya broth (Nissan) into the urinary tract of mice anesthetized with sodium pentobarbital and by holding for 6 hours the mice in plastic tubes (diameter 25 mm) and clamping the outlet of urinary tract.
# Each of these test material was orally administered 3 hours after inoculation. Mice were sacrificed 48 hours after inoculation. Kidneys were removed aseptically and bisected, and the two halves were pressed and streaked on agar plate containing Desoxycholate medium (Nissan). The therapeutic effect of each compound was evaluated from the absence of growth on the agar surface after 20 hours of incubation at 37° C.
compound,measurement,setting,value
Gentamicin,M.I.C.,Pr. vulgaris XK Denken; Gram -,0.10 µg/mL
same,M.I.C.,[1]; Gram +,6.25 µg/mL
same,M.I.C.,[2]; Gram -,1.56 µg/mL
same,M.I.C.,Ps. aeruginosa IFO 12689; Gram -,12.5 µg/mL
same,M.I.C.,Shigella sonnei IID 969,0.78 µg/mL
same,M.I.C.,Ps. aeruginosa IID 1210; Gram -,12.5 µg/mL
same,M.I.C.,Str. faecalis IID 682,50 µg/mL
same,M.I.C.,[3]; Gram +,12.5 µg/mL
same,M.I.C.,[4]; Gram +,0.10 µg/mL
same,M.I.C.,Str. pyogenes S-8; Gram +,6.25 µg/mL
same,M.I.C.,[5]; Gram +,6.25 µg/mL
same,M.I.C.,[6]; Gram -,1.56 µg/mL
same,M.I.C.,Escherichia coli NIHJ; Gram -,0.39 µg/mL
same,M.I.C.,[7]; Gram -,0.78 µg/mL
same,M.I.C.,[8]; Gram +,0.10 µg/mL
same,M.I.C.,[9]; Gram -,0.20 µg/mL
same,M.I.C.,E. coli ATCC 10536; Gram -,0.39 µg/mL
same,M.I.C.,Sta. aureus ATCC 14775; Gram +,0.10 µg/mL
same,M.I.C.,[10],0.78 µg/mL
same,M.I.C.,My. smegmatis IFO 3083; Gram +,0.20 µg/mL
same,M.I.C.,[11]; Gram -,0.20 µg/mL
same,M.I.C.,Ps. aeruginosa IID 1130; Gram -,3.13 µg/mL
same,M.I.C.,[12]; Gram -,0.78 µg/mL
CCn1cc(C(=O)O)c(=O)c2ccc(C)nc21 [Nalidixic acid],MIC,Pr. vulgaris XK Denken; Proteus vulgaris,3.13 µg/mL
same,serum concentration / M.I.C. ratio (in words),Escherichia coli,smaller than that of the compound (II)
same,MIC,"[1]; Mycolicibacterium phlei, IFO3142",100 µg/mL
same,MIC,"[2]; Haemophilus influenzae, IID986",1.56 µg/mL
same,MIC,"Ps. aeruginosa IFO 12689; Pseudomonas aeruginosa, IFO12689",> 200 µg/mL
same,MIC,"Shigella sonnei IID 969; Shigella sonnei, IID969",1.56 µg/mL
same,MIC,"Ps. aeruginosa IID 1210; Pseudomonas aeruginosa, IID1210",> 200 µg/mL
same,MIC,"[3]; Streptococcus pneumoniae, IID552",> 100 µg/mL
same,chelate compound with ferric ion,[13],afforded chelate compound when treated with ferric ion
same,MIC,"[4]; Bacillus subtilis, PCI219",6.25 µg/mL
same,MIC,"Str. pyogenes S-8; Streptococcus pyogenes, S8",> 100 µg/mL
same,MIC,"[5]; Streptococcus pyogenes, IID692",> 100 µg/mL
same,MIC,[6]; Salmonella enterica,12.5 µg/mL
same,MIC,Escherichia coli NIHJ; Escherichia coli,3.13 µg/mL
same,shift of absorption maxima on treatment with ferric ion,"[14]; from 256 and 326 nm, NaOH",shifted to shorter wave length at 248 and 311 nm
same,chelate compound with ferric ion,[14]; molar equivalent of sodium hydroxide,3:1 chelate compound of nalidixic acid and ferric ion was obtained
same,dose excreted at 3 h,"[15]; 0-3 hours, mean ±S.E., read-out: Biliary excretion, cumulative recovery",0.29 ± 0.03%
same,concentration at 3 h,"[15]; 0-3 hrs., mean±S.E., read-out: Biliary level",14700 ± 1500 ng/mL
same,dose excreted at 6 h,"[15]; 0-6 hours, mean ±S.E., read-out: Biliary excretion, cumulative recovery",0.56 ± 0.05%
same,dose excreted at 24 h,"[15]; 0-24 hours, mean ±S.E., read-out: Biliary excretion, cumulative recovery",1.33 ± 0.1%
same,dose excreted at 27 h,"[15]; 0-27 hours, mean ±S.E., read-out: Biliary excretion, cumulative recovery",1.33 ± 0.1%
same,concentration at 6 h,"[15]; 3-6 hrs., mean±S.E., read-out: Biliary level",16600 ± 2400 ng/mL
same,concentration at 24 h,"[15]; 6-24 hrs., mean±S.E., read-out: Biliary level",9300 ± 1600 ng/mL
same,concentration at 27 h,"[15]; 24-27 hrs., read-out: Biliary level (not detected symbol)",< 2000 ng/mL
same,antibacterial activity in presence of bile (in words),[16],not influenced by bile of rats
same,MIC,"[7]; Pseudomonas aeruginosa, V1",100 µg/mL
same,MIC,"[8]; Staphylococcus aureus, 209P",100 µg/mL
same,MIC,"[9]; Proteus vulgaris, IFO3167",3.13 µg/mL
same,antibacterial activity (in words),[17],inactive on many strains of gram-positive bacteria and many Pseudomonas aeruginosa strains
same,MIC,"E. coli ATCC 10536; Escherichia coli, ATCC10536",3.13 µg/mL
same,ED90,"[18]; NIHJJC2, 48 h",345 mg/kg
same,ED50,"[18]; NIHJJC2, po, 48 h, read-out: ED50 (95% confidence limit)",86 mg/kg
same,MIC,"Sta. aureus ATCC 14775; Staphylococcus aureus, ATCC14775",> 100 µg/mL
same,MIC,"My. smegmatis IFO 3083; Mycolicibacterium smegmatis, IFO3083",> 100 µg/mL
same,MIC,"[11]; Klebsiella pneumoniae, IFO3512",1.56 µg/mL
same,MIC,"Ps. aeruginosa IID 1130; Pseudomonas aeruginosa, IID1130",> 200 µg/mL
same,MIC,"[12]; Neisseria perflava, IID856",1.56 µg/mL
